Laboratory results published in patent US5677419A, “Cyclic vasoactive peptide analogs” (Hoffmann-La Roche Inc., priority 1994, dated 1997).
pEC50: −log10 of the molar value. Where a SMILES comes first, the peptide text is derived from it. Bridges are numbered along the chain shown (N, C = ends). [ ]: non-standard residue; d: D form. 2Nal = N[C@@H](Cc1ccc2ccccc2c1)C(=O)O; Nle = CCCC[C@H](N)C(=O)O; Orn = NCCC[C@H](N)C(=O)O

system: guinea pig tracheal smooth muscle; assay: Tracheal relaxant activity of VIP analogs on isolated guinea pig tracheal rings; assay type: cell-based; settings: cumulative concentration response, relaxation as % of maximum response to VIP (10^-6 M=100%), three tissues pooled, linear regression
Method: The relaxant activity of the VIP analogs were studied in a model utilizing guinea pig trachea. [Wasserman, M. A. et al., in Vasoactive Intestinal Peptide, S. I. Said, ed., Raven Press, New York 1982, pp 177-184] All tissues were taken from male albino guinea pig weighing 400-600 g, anesthetized with urethane (2 g/kg, i.p.). After exanguination, the trachea were removed and divided into four ring segments (3 mm length). Each ring was suspended by 30 gauge stainless steel wires in a 10 mL jacketed tissue bath and attached via 4-0 silk thread to a GRASS force displacement transducer (model FT03C, Grass Instruments Co., Quincy, Mass.), for isometric recording of tension. The smooth muscle was bathed in modified Krebs solution of the following composition: NaCl, 120 mM; KCl, 4.7 mM; CaCl2, 2.5 mM; MgSO4.7H2 O, 1.2 mM; NaHCO3, 25 mM; K2 HPO4 monobasic, 1.2 mM; and dextrose, 10 mM. Tissue baths were maintained at 37° C. and constantly bubbled with 95% O2 and 5% CO2. Responses were recorded on an 8 channel and a 4 channel HEWLETT-PACKARD (model 7702B and 7754A, respectively) recorder (Hewlett- Packard, Paramus, N.J.). Tracheal rings were placed under a resting tension of 1.5 g which was determined to be at or near optimal in preliminary experiments. Frequent readjustments of tension were required during the 60 minute stabilization period which followed. Tissues were rinsed at 15 minute intervals.
Cumulative concentration response curves were obtained for each tissue by successive […] increases in the bath concentration of VIP or VIP analogs according to the method of VanRossum [Arch. Int. Pharmacodyn., 143, 299-330 (1963)]. Only one cumulative dose response curve was obtained on a single tissue. To minimize variability between tissues, relaxant responses were expressed as a percentage of the maximum response obtained to VIP (10^-6 M=100%) added at the end of each concentration response experiment. Responses obtained from three tissues were pooled and EC50 values were determined by linear regression.
The results summarized in Table I show the tracheal relaxant activity of the VIP analogs in comparison to native VIP.

pEC50 | Compound
7.85 | CCCC[C@H](NC(=O)[C@H](CCC(N)=O)NC(=O)[C@H](CCCCN)NC(=O)[C@H](CCCNC(=N)N)NC(=O)[C@H](CC(C)C)NC(=O)[C@@H]1CCCCNC(=O)C[C@H](NC(=O)[C@@H](NC(=O)[C@H](Cc2ccccc2)NC(=O)[C@@H](NC(=O)[C@H](C)NC(=O)[C@H](CC(=O)O)NC(=O)[C@H](CO)NC(=O)[C@H](Cc2c[nH]cn2)NC(C)=O)C(C)C)[C@@H](C)O)C(=O)N[C@@H](CC(N)=O)C(=O)N[C@@H](Cc2ccc(O)cc2)C(=O)N[C@@H]([C@@H](C)O)C(=O)N1)C(=O)N[C@@H](C)C(=O)N[C@H](C(=O)N[C@@H](CCCCN)C(=O)N[C@@H](CCCCN)C(=O)N[C@@H](Cc1ccc(O)cc1)C(=O)N[C@@H](CC(C)C)C(=O)N[C@@H](CC(N)=O)C(=O)N[C@@H](CO)C(=O)N[C@H](C(=O)N[C@@H](CC(C)C)C(=O)N[C@H](C(N)=O)[C@@H](C)O)C(C)C)C(C)C [SEQ ID NO:20, Ac-[Lys^12,Nle^17,Val^26,Thr^28]-VIP cyclo (Asp^8 →Lys^12)] (Ac-HSDAVFTDNYTKLRKQ[Nle]AVKKYLNSVLT-NH2; lactam 8-12)
7.47 | CCCC[C@H](NC(=O)[C@H](CCC(N)=O)NC(=O)[C@H](CCCCN)NC(=O)[C@H](CCCNC(=N)N)NC(=O)[C@H](CC(C)C)NC(=O)[C@@H]1CCCCNC(=O)CC[C@H](NC(=O)[C@@H](NC(=O)[C@H](Cc2ccccc2)NC(=O)[C@@H](NC(=O)[C@H](C)NC(=O)[C@H](CC(=O)O)NC(=O)[C@H](CO)NC(=O)[C@H](Cc2c[nH]cn2)NC(C)=O)C(C)C)[C@@H](C)O)C(=O)N[C@@H](CC(N)=O)C(=O)N[C@@H](Cc2ccc(O)cc2)C(=O)N[C@@H]([C@@H](C)O)C(=O)N1)C(=O)N[C@@H](C)C(=O)N[C@H](C(=O)N[C@@H](CCCCN)C(=O)N[C@@H](CCCCN)C(=O)N[C@@H](Cc1ccc(O)cc1)C(=O)N[C@@H](CC(C)C)C(=O)N[C@@H](CC(N)=O)C(=O)N[C@@H](CO)C(=O)N[C@H](C(=O)N[C@@H](CC(C)C)C(=O)N[C@H](C(N)=O)[C@@H](C)O)C(C)C)C(C)C [SEQ ID NO:21, Ac-[Glu^8,Lys^12,Nle^17,Val^26,Thr^28]-VIP cyclo (Glu^8 →Lys^12)] (Ac-HSDAVFTENYTKLRKQ[Nle]AVKKYLNSVLT-NH2; lactam 8-12)
7.77 | CCCC[C@H](NC(=O)[C@H](CCC(N)=O)NC(=O)[C@H](CCCCN)NC(=O)[C@H](CCCNC(=N)N)NC(=O)[C@H](CC(C)C)NC(=O)[C@@H]1CCCCNC(=O)C[C@H](NC(=O)[C@H](CC(N)=O)NC(=O)[C@@H](NC(=O)[C@H](Cc2ccccc2)NC(=O)[C@@H](NC(=O)[C@H](C)NC(=O)[C@H](CC(=O)O)NC(=O)[C@H](CO)NC(=O)[C@H](Cc2c[nH]cn2)NC(C)=O)C(C)C)[C@@H](C)O)C(=O)N[C@@H](Cc2ccc(O)cc2)C(=O)N[C@@H]([C@@H](C)O)C(=O)N1)C(=O)N[C@@H](C)C(=O)N[C@H](C(=O)N[C@@H](CCCCN)C(=O)N[C@@H](CCCCN)C(=O)N[C@@H](Cc1ccc(O)cc1)C(=O)N[C@@H](CC(C)C)C(=O)N[C@@H](CC(N)=O)C(=O)N[C@@H](CO)C(=O)N[C@H](C(=O)N[C@@H](CC(C)C)C(=O)N[C@H](C(N)=O)[C@@H](C)O)C(C)C)C(C)C [SEQ ID NO:22, Ac-[Asn^8,Asp^9,Lys^12,Nle^17,Val^26,Thr^28]-VIP cyclo (Asp^9 →Lys^12)] (Ac-HSDAVFTNDYTKLRKQ[Nle]AVKKYLNSVLT-NH2; lactam 9-12)
7.40 | CCCC[C@H](NC(=O)[C@H](CCC(N)=O)NC(=O)[C@H](CCCCN)NC(=O)[C@H](CCCNC(=N)N)NC(=O)[C@H](CC(C)C)NC(=O)[C@@H]1CCCNC(=O)C[C@H](NC(=O)[C@@H](NC(=O)[C@H](Cc2ccccc2)NC(=O)[C@@H](NC(=O)[C@H](C)NC(=O)[C@H](CC(=O)O)NC(=O)[C@H](CO)NC(=O)[C@H](Cc2c[nH]cn2)NC(C)=O)C(C)C)[C@@H](C)O)C(=O)N[C@@H](CC(N)=O)C(=O)N[C@@H](Cc2ccc(O)cc2)C(=O)N[C@@H]([C@@H](C)O)C(=O)N1)C(=O)N[C@@H](C)C(=O)N[C@H](C(=O)N[C@@H](CCCCN)C(=O)N[C@@H](CCCCN)C(=O)N[C@@H](Cc1ccc(O)cc1)C(=O)N[C@@H](CC(C)C)C(=O)N[C@@H](CC(N)=O)C(=O)N[C@@H](CO)C(=O)N[C@H](C(=O)N[C@@H](CC(C)C)C(=O)N[C@H](C(N)=O)[C@@H](C)O)C(C)C)C(C)C [SEQ ID NO:23, Ac-[Orn^12,Nle^17,Val^26,Thr^28]-VIP cyclo (Asp^8 →Orn^12)] (Ac-HSDAVFTDNYT[Orn]LRKQ[Nle]AVKKYLNSVLT-NH2; lactam 8-12)
7.42 | CCCC[C@H](NC(=O)[C@H](CCC(N)=O)NC(=O)[C@H](CCCCN)NC(=O)[C@H](CCCNC(=N)N)NC(=O)[C@H](CC(C)C)NC(=O)[C@@H]1CC(=O)NCCCC[C@H](NC(=O)[C@@H](NC(=O)[C@H](Cc2ccccc2)NC(=O)[C@@H](NC(=O)[C@H](C)NC(=O)[C@H](CC(=O)O)NC(=O)[C@H](CO)NC(=O)[C@H](Cc2c[nH]cn2)NC(C)=O)C(C)C)[C@@H](C)O)C(=O)N[C@@H](CC(N)=O)C(=O)N[C@@H](Cc2ccc(O)cc2)C(=O)N[C@@H]([C@@H](C)O)C(=O)N1)C(=O)N[C@@H](C)C(=O)N[C@H](C(=O)N[C@@H](CCCCN)C(=O)N[C@@H](CCCCN)C(=O)N[C@@H](Cc1ccc(O)cc1)C(=O)N[C@@H](CC(C)C)C(=O)N[C@@H](CC(N)=O)C(=O)N[C@@H](CO)C(=O)N[C@H](C(=O)N[C@@H](CC(C)C)C(=O)N[C@H](C(N)=O)[C@@H](C)O)C(C)C)C(C)C [SEQ ID NO:24, Ac-[Lys^8,Asp^12,Nle^17,Val^26,Thr^28]-VIP cyclo (Lys^8 →Asp^12)] (Ac-HSDAVFTKNYTDLRKQ[Nle]AVKKYLNSVLT-NH2; lactam 8-12)
7.80 | CCCC[C@H](NC(=O)[C@H](CCC(N)=O)NC(=O)[C@H](CCCCN)NC(=O)[C@H](CCCNC(=N)N)NC(=O)[C@H](CC(C)C)NC(=O)[C@@H]1CCCNC(=O)CC[C@H](NC(=O)[C@@H](NC(=O)[C@H](Cc2ccccc2)NC(=O)[C@@H](NC(=O)[C@H](C)NC(=O)[C@H](CC(=O)O)NC(=O)[C@H](CO)NC(=O)[C@H](Cc2c[nH]cn2)NC(C)=O)C(C)C)[C@@H](C)O)C(=O)N[C@@H](CC(N)=O)C(=O)N[C@@H](Cc2ccc(O)cc2)C(=O)N[C@@H]([C@@H](C)O)C(=O)N1)C(=O)N[C@@H](C)C(=O)N[C@H](C(=O)N[C@@H](CCCCN)C(=O)N[C@@H](CCCCN)C(=O)N[C@@H](Cc1ccc(O)cc1)C(=O)N[C@@H](CC(C)C)C(=O)N[C@@H](CC(N)=O)C(=O)N[C@@H](CO)C(=O)N[C@H](C(=O)N[C@@H](CC(C)C)C(=O)N[C@H](C(N)=O)[C@@H](C)O)C(C)C)C(C)C [SEQ ID NO:25, Ac-[Glu^8,Orn^12,Nle^17,Val^26,Thr^28]-VIP cyclo (Glu^8 →Orn^12)] (Ac-HSDAVFTENYT[Orn]LRKQ[Nle]AVKKYLNSVLT-NH2; lactam 8-12)
8.38 | CCCC[C@H](NC(=O)[C@H](CCC(N)=O)NC(=O)[C@H](CCCCN)NC(=O)[C@H](CCCNC(=N)N)NC(=O)[C@H](CC(C)C)NC(=O)[C@H](CC(C)C)NC(=O)[C@@H](NC(=O)[C@H](Cc1ccc2ccccc2c1)NC(=O)[C@H](CC(N)=O)NC(=O)[C@H](CC(=O)O)NC(=O)[C@@H](NC(=O)[C@H](Cc1ccccc1)NC(=O)[C@@H](NC(=O)[C@H](C)NC(=O)[C@H](CC(=O)O)NC(=O)[C@H](CO)NC(=O)[C@H](Cc1c[nH]cn1)NC(C)=O)C(C)C)[C@@H](C)O)[C@@H](C)O)C(=O)N[C@@H](C)C(=O)N[C@@H](C)C(=O)N[C@@H](CCCCN)C(=O)N[C@H]1CCCCNC(=O)C[C@@H](C(=O)N[C@H](C(=O)N[C@@H](CC(C)C)C(=O)N[C@H](C(N)=O)[C@@H](C)O)C(C)C)NC(=O)[C@H](CC(N)=O)NC(=O)[C@H](CC(C)C)NC(=O)[C@H](Cc2ccc(O)cc2)NC1=O [SEQ ID NO:35, Ac-[2-Nal^10,Leu^12,Nle^17,Ala^19,Asp^25,Val^26,Thr^28]-VIP cyclo (Lys^21 →Asp^25)] (Ac-HSDAVFTDN[2Nal]TLLRKQ[Nle]AAKKYLNDVLT-NH2; lactam 21-25)
9.08 | CCCC[C@H](NC(=O)[C@H](CCC(N)=O)NC(=O)[C@H](CCCCN)NC(=O)[C@H](CCCNC(=N)N)NC(=O)[C@H](CC(C)C)NC(=O)[C@H](CC(C)C)NC(=O)[C@@H](NC(=O)[C@H](Cc1ccc(OC)cc1)NC(=O)[C@H](CC(N)=O)NC(=O)[C@H](CC(=O)O)NC(=O)[C@@H](NC(=O)[C@H](Cc1ccccc1)NC(=O)[C@@H](NC(=O)[C@H](C)NC(=O)[C@H](CC(=O)O)NC(=O)[C@H](CO)NC(=O)[C@H](Cc1c[nH]cn1)NC(C)=O)C(C)C)[C@@H](C)O)[C@@H](C)O)C(=O)N[C@@H](C)C(=O)N[C@@H](C)C(=O)N[C@@H](CCCCN)C(=O)N[C@H]1CCCCNC(=O)C[C@@H](C(=O)N[C@H](C(=O)N[C@@H](CC(C)C)C(=O)N[C@H](C(N)=O)[C@@H](C)O)C(C)C)NC(=O)[C@H](CC(N)=O)NC(=O)[C@H](CC(C)C)NC(=O)[C@H](Cc2ccc(O)cc2)NC1=O [SEQ ID NO:36, Ac-[O-Me-Tyr^10,Leu^12,Nle^17,Ala^19,Asp^25,Val^26,Thr^28]-VIP cyclo (Lys^21 →Asp^25)] (Ac-HSDAVFTDNY(Me)TLLRKQ[Nle]AAKKYLNDVLT-NH2; lactam 21-25)
